Laboratory results reported in PubChem BioAssay (NCI).
Several values for one entry are separate records, joined by “and”; a condition that tells them apart may be missing. Equal entries are not always repeated.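 In this assay, cells in 96-well plates receive the compound at five concentrations for 48 hours. Endpoints are linearly interpolated between the surrounding concentrations. The concentration for 50% growth inhibition is given as GI50. Definition used: TGI = concentration required for complete inhibition of growth.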

Key:
Experiment in all cases: DTP human tumour cell line panel, 48 h
[1] = test system: OVCAR-3 ovarian
[2] = test system: A549 NSCLC
[3] = test system: LOX IMVI melanoma
[4] = test system: RXF 393 renal
[5] = test system: HL-60(TB) leukemia
[6] = test system: HOP-92 NSCLC
[7] = test system: COLO 205 colon
[8] = test system: OVCAR-4 ovarian

Row | SMILES | GI50 [1] | TGI [1] | GI50 [2] | TGI [2] | GI50 [3] | TGI [3] | GI50 [4] | TGI [4] | GI50 [5] | TGI [5] | GI50 [6] | TGI [6] | GI50 [7] | TGI [7] | GI50 [8] | TGI [8]
1 | CC1(C)N=C(N)N=C(N)N1c1cccc(CCCCc2ccc(S(=O)(=O)F)cc2Cl)c1 | 5.37 µM | 34.1 µM | 1.42 µM | > 100 µM | 1.34 µM | > 41.7 µM | 9.46 µM | > 87.3 µM | 7.02 µM | 55.8 µM | 14 µM | 47.8 µM | 5.37 µM | 32.9 µM | 13.9 µM | > 100 µM
2 | c1cncc(CNc2ccccc2-c2nnc(Nc3ccc4c(c3)OCCO4)o2)c1 | 0.0452 µM | 0.228 µM | 0.294 µM | > 100 µM | 0.183 µM | > 100 µM | 0.0343 µM | 0.251 µM | 0.103 µM | 3.34 µM | 0.222 µM | 20 µM | 0.146 µM | 0.817 µM | 0.549 µM | 42.5 µM
3 | Cc1nn2c(/C=C3/C(=O)Nc4ccc(Cl)cc43)c(-c3ccccc3)nc2s1 | 2.79 µM | 13 µM | 2.25 µM | 5.51 µM | 3.52 µM | 14.8 µM | 1.91 µM | 4.71 µM | 28.8 µM | > 100 µM | 0.58 µM | 3.06 µM | 3.9 µM | 13.5 µM | 1.66 µM | 3.64 µM
4 | Cc1ccc(C(=O)N/N=C/c2cccc(Oc3ccccc3)c2)cn1 | 5.96 µM | > 100 µM | 17 µM | > 100 µM | 8.54 µM | > 100 µM | 18.9 µM | > 100 µM | 1.8 µM | 5.77 µM | 12.7 µM | > 100 µM | 5.66 µM | 38.1 µM | 26.6 µM | > 100 µM
5 | CCN(CC)CCCC(C)Nc1cnc(C(=O)Nc2cc(F)cc3cccnc23)cn1 (stereo not given) | 2.14 µM and 0.349 µM | 6.79 µM and 1.23 µM | 8.14 µM and 2.41 µM | 22.3 µM and 6.28 µM | 3.32 µM and 0.882 µM | 11.3 µM and 2.28 µM | 4.26 µM and 1.32 µM | 16.9 µM and 2.69 µM |  | 25.6 µM and 31.3 µM | 2.43 µM and 1.19 µM | 14.5 µM and 2.62 µM | 1.16 µM and 0.461 µM | 3.57 µM and 2.16 µM | 2.24 µM and 0.35 µM | 
6 | c1ccc2[nH]c(-c3ccc(OCCCCCOc4ccc(-c5nc6ccccc6[nH]5)cc4)cc3)nc2c1 | 0.828 µM | 1.84 µM | 2.53 µM | > 47.4 µM | 1.22 µM | 2.57 µM | 1.48 µM | 3.08 µM | 1.28 µM | 3.29 µM | 3.84 µM | 10.1 µM | 7.83 µM | > 34.5 µM | 1.76 µM | 3.64 µM
7 | CO/N=C1/NC(=O)/C(=C/c2ccc3ncccc3c2)S1 | 11.1 µM | > 25 µM | 10.7 µM | > 25 µM | 12.8 µM | > 25 µM | 9.81 µM | > 25 µM | 13.8 µM | > 25 µM | 4.48 µM | > 25 µM | > 25 µM | > 25 µM | > 25 µM | > 25 µM
